# According to patent US5221665A, “N-substituted amides” (Boehringer Ingelheim Pharmaceuticals, Inc., priority 1991, dated 1993):
# How the values were obtained:
# [1] = biological target: T1, Human sputum elastase (HSE) / Human Leukocyte Elastase (HLE) (Homo sapiens, UniProt P08246); assay: Elastase Inhibition--In Vitro Method (hydrolysis of MeO-Suc-Ala-Ala-Pro-Val-pNA, microtiter format); type: biochemical; conditions: for % inhib. (5 ug/mL) 0% HSA / % inhib. (5 ug/mL) 0.5% HSA: 5 ug/mL compound; for % inhib. (5 ug/mL) 0.5% HSA: 0.5% HSA added; for IC50: Table I, 0.5 mM substrate, 15 minutes pre-incubation
# T1 construct: Human sputum elastase (HSE ) (Elasten Products Co., Pacific, Mo.); purchased Elasten Products Co., Pacific, Mo; host or cells: human sputum
# T1 sequence (P08246 30-267): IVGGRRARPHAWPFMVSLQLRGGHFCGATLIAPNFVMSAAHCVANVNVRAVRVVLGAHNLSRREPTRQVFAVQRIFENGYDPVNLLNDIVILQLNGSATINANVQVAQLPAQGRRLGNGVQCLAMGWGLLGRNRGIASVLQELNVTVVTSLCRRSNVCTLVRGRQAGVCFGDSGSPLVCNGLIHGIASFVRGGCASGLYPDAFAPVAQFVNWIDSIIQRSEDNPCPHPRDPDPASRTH
# [2] = biological target: T2, human neutrophil elastase (HNE) (Homo sapiens, UniProt P08246); assay: Elastase Inhibition--Animal Model (acute hamster hemorrhage model, HNE instilled i.t.); type: in vivo, Syrian Golden Hamsters; conditions: compound 20 ug i.t. three to five minutes before 50 μg HNE i.t., lung lavage hemorrhage at 18 hours
# T2 construct: purified preparations of human neutrophil elastase (HNE); purchased Elastin Products Co., Pacific, MO
# T2 sequence (P08246 30-247 limits assumed): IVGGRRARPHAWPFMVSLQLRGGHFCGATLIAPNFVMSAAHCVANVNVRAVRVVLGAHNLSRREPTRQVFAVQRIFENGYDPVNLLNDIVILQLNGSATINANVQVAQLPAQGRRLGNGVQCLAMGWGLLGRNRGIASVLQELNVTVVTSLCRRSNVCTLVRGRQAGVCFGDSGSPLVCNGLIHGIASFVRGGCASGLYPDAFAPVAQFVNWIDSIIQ
# Procedure: When instilled into the lungs of hamsters, purified preparations of human neutrophil elastase (HNE) will produce an emphysema like state. Acute challenge (18 hours) with 50 μg of HNE results in pulmonary hemorrhage which can be readily quantitated by measuring total RBC's (red blood count) and hemogloblin concentration of lung lavage samples.
# HNE (obtained from Elastin Products Co., Pacific, MO) was diluted to 250 μg/mL in 0.9% sterile saline. Syrian Golden Hamsters, males, weighing approximately 90-130 grams, were obtained from Charles River Laboratories. The experiments described below are conducted using at least three animals per group.
# Anesthesia required for the intratracheal administration of compounds and elastase was induced by the i.p. injection of Ketamine hydrochloride, 10 mg/100 gram body weight plus Xylazine, 1 mg/100 gram body weight.
# Hamsters were anesthetized as described above and the trachea were surgically exposed. Test compounds were administered via 27g needle inserted directly into the trachea in 0.1 mL volume followed by 0.1 mL saline push. […]
# Samples were concentrated by centrifugation (1500 rpm, 10 minutes) and brought up to 1.0 mL in saline. Homoglobin concentration was determined spectrophotometrically (540 nm) by the cyanmethemoglobin method using 200 μL sample to 2.5 mL cranmethoglobin reagent (Data Medical Associates, Arlington, Tx.).
% inhib. (5 ug/mL) 0% HSA [1] [%],% inhib. (5 ug/mL) 0.5% HSA [1] [%],IC50 [1] [µg/mL],"% inhib. (20 ug, i.t.) [2] [%]",Structure (SMILES)
95.1,87.8,0.432,–,"COc1ccc(CCN(CC(=O)NC(C(=O)C(F)(F)F)C(C)C)C(=O)[C@@H](NC(=O)OCc2ccccc2)C(C)C)cc1OC (some centres unmarked) [3,4-Dimethoxyphenethyl; CBZ]"
99.8,99.5,0.045,93.8,"CC(C)C(NC(=O)CN(C(=O)[C@@H](NC(=O)c1ccc(C(=O)NS(=O)(=O)c2ccc(Cl)cc2)cc1)C(C)C)C1CC2CCC1C2)C(=O)C(F)(F)F (stereo partly drawn) [[[4-(4-Chlorophenyl)sulfonylaminocarbonyl]phenyl-1-oxomethyl]-L-Valyl-N-(exo-bicyclo[2,2,1]hept-2-yl)-glycyl-N-[3-(1,1,1-trifluoro-4-methyl-2-oxypentyl)] amide.]"
100,99.4,0.082,–,CC(C)C(NC(=O)CN(C(=O)[C@@H](NC(=O)OCc1ccccc1)C(C)C)C1CCCC1)C(=O)C(F)(F)F (some centres unmarked) [Cyclopentyl; CBZ]
98.8,96.3,0.0838,90.2,"COc1ccc(CCN(CC(=O)NC(C(=O)C(F)(F)F)C(C)C)C(=O)[C@@H](NC(=O)c2ccc(C(=O)NS(=O)(=O)c3ccc(Cl)cc3)cc2)C(C)C)cc1OC (stereo partly drawn) [[[4-(4-Chlorophenylsulfonylaminocarbonyl]phenyl-1-oxomethyl]-L-Valyl-N-2-(3 , 4-dimethoxy)phenethyl] glycyl-N-[3-(1,1,1-trifluoro-4-methyl-2-oxypentyl)] amide]"
